Assay results reported in patent US20200289482A1, “CYSTIC FIBROSIS TRANSMEMBRANE CONDUCTANCE REGULATOR MODULATORS FOR TREATING AUTOSOMAL DOMINANT POLYCYSTIC KIDNEY DISEASE” (The Johns Hopkins University, priority 2017, published 2020).

Columns and labels:
[1] = system: model ADPKD cell line (PN=pkd−/− knockout); assay: In vitro cystogenesis (3D Matrigel culture), cyst size; type: cell-based, mouse; parameters: cyst size, drug treatment regime incl. established cysts: dose or concentration left out as unconfirmed
[2] = system: kidneys of Pkd1^fl/fl; Pax8^rtTA; TetO-cre mice; assay: Ki67 staining of kidney sections (proliferation); type: in vivo, mouse; conditions: VX-809 30 mg/kg to mice vs DMSO-treated mice; PN21 kidney sections
Source text: FIG. 3A, FIG. 3B, FIG. 3C, and FIG. 3D show cell proliferation is reduced by VX-809. (FIG. 3A-FIG. 3B) Proliferation in kidneys of Pkd1^fl/fl; Pax8^rtTA; TetO-cre mice. Representative images of Ki67 (a cellular marker for proliferation) staining of PN21 kidney sections from DMSO- and VX-809-treated mice. Arrows indicate Ki67-positive cells. Pictures were acquired with a Zeiss microscope equipped with 20× objective. (FIG. 3C) Summary data for Ki67-positive cells. Columns represent averages±standard errors of DMSO (vehicle)-treated (n=3) and VX-809-treated (n=3) mice. Statistical analysis was performed using a two-tailed Student's t test. (FIG. 3D) Proliferation in PN cells. PN cells were treated with VX-809 or DMSO). The bromodeoxyuridine (BrdU) concentration in the cells was measured by using a BrdU cell proliferation assay kit (Millipore Sigma #2750) according to the manufacturer's protocol. Columns represent averages±SEs of the OD of BrdU at 450/550 […]. Data were analyzed using Student's t-test, with n=5-7. Methods were described previously (62). […]; **P<0.01;
A hallmark of the cysts in ADPKD is an increase in proliferation in response to cAMP (23). Therefore, it was determined whether VX-809 would affect proliferation.

[3] = system: Hsp40; assay: Western blot of Hsp40 in kidney tissue lysates; type: in vivo, mouse; conditions: cyst induced pkd−/− mice, VX-809 30 mg/kg BW
Description: FIG. 7A, FIG. 7B, FIG. 7C, FIG. 7D, FIG. 7E, and FIG. 7F show chaperone expression is altered in mice by VX-809. (FIG. 7A-FIG. 7B) Representative Western blot images of HSP27, 70, 90 and HSP40 in lysates of kidney tissue from no cyst induced (ND), cyst induced with Doxycycline (D) or cyst induced pkd−/− mice treated with VX-809 (D+VX-809) 30 mg/kg BW. (FIG. 7C, FIG. 7D, FIG. 7E, and FIG. 7F) Columns represent averages±standard errors of HSP27, 70, 90 and HSP40 expression. Data were analyzed by non-parametric t-test. n=4 for each treated and control groups. Black lines between lanes represent representative experiments from the same gel. *P<0.05; **P<0.01; To facilitate their growth in the kidney, cysts have developed an altered network of proteins that most likely serves to protect them from stress (34). Next, it was determined whether VX-809 would alter the levels of Hsps in pkd−/− mice and in PN cells. […] Hsp 27, 70 and 90 are all elevated in cystic kidneys compared to normal controls. […] There is no change in Hsp 40. […] Both sets of data are consistent with an alteration in the heat shock response to cyst growth.

[4] = system: caspase 3 activity in PN cells; assay: EnzChek Caspase-3 assay (apoptosis); type: cell-based, mouse; conditions: 16 h treatment
Description: Apoptosis was measured using the EnzChek Caspase-3 Assay Kit (Invitrogen # E13184). Cells were treated either with VX-809 or with DMSO at indicated concentrations for 16 h or left untreated (control). Both treated and control cells were then harvested, lysed, and assayed as described in the manufacturer's protocol. Reactions were carried out at room temperature, and fluorescence was measured in a fluorescence microplate reader (SpectraMax M3), with excitation at 496 nm and emission detection at 520 nm. Background fluorescence, determined for a no-enzyme control, has been subtracted from each value. Ac-DEVD-CHO was used as an inhibitor control (Inh-cntrl) to confirm the correlation between signal detection and caspase3-like protease activity. Data were analyzed using one-way and ANOVA multiple comparisons. n=4-5. ****P<0.0001;
Apoptosis is associated with the absence of PC1 in ADPKD (36). To assess whether apoptosis is directly altered by VX-809, caspase 3 activity was monitored in PN cells.

[5] = system: Ero1; assay: Western blot of ER stress marker Ero1 in kidney tissue; type: in vivo, mouse; conditions: cyst induced pkd−/− mice, VX-809 30 mg/kg BW
Description: FIG. 11A. FIG. 11B, FIG. 11C, FIG. 11D, and FIG. 11E show expression of ER stress markers GRP78, ErO1, and GADD in Pkd1^−/− mice treated with VX-809. (FIG. 11A & FIG. 11D) Representative Western blot images of GRP78, ErO1, and GADD in lysates of kidney tissue from no cyst induced (ND), cyst induced with doxycycline (D) or cyst induced pkd−/− mice treated with VX-809 (D+VX-809) 30 mg/kg BW. (FIG. 11B, FIG. 11C and FIG. 11E) Columns represent averages±standard errors of GRP78, ErO1, and GADD153 expression. Data were analyzed by non-parametric t-test. n=4 for each treated and control groups. Black lines between lanes represent representative experiments from the same gel but loaded in different lanes. **P<0.01, ***P<0.001;
Given that VX-809 alters an ensemble of Hsps, it was evaluated whether VX-809 alters proteins associated with ER stress. To address this question, the levels of three ER stress-associated proteins were measured, 78-kDa glucose-regulated protein (GRP78), ER oxidoreductin 1 (Ero1) and DNA damage-inducible protein 3 (GADD153), also known as C/EBP homologous protein (CHOP) (37). The results are depicted in FIG. 11 show no changes in GRP78 or Ero1 in response to VX-809.

[6] = system: PC2; assay: Confocal microscopy localization of PC2; type: cell-based; conditions: VX-809 treated vs control cells; ER, Golgi and PM markers
Source text: FIG. 17A and FIG. 17B show images of confocal microscopy localization studies of PC2 and localization markers in control and treated cells (FIG. 17A) and graphs showing Pearson's correlation coefficient for PC2 and localization markers in control and VX-809 treated cells (FIG. 17B).
The localization of PC2 and CFTR in control cells was compared to the localization of PC2 and CFTR localization in VX-809 treated cells.

## lumacaftor [VX-809]
[1]; 10 μM, plus or minus forskolin, treated on Days 0, 2, 4, 6, 8, 10, 12, 14, pictures Day 16
  cyst growth: reduce cyst growth equally well in the presence and absence of forskolin
[1]; every other day, or from Days 9-16 on established cysts, in the presence of forskolin
  cyst size, drug treatment regime incl. established cysts: dramatically reducing cyst size
[2]
  cell proliferation (Ki67-positive cells): significantly inhibit cell proliferation
[3]
  Hsp40 expression in kidneys: no change
[4]
  caspase 3 activity: small reduction in caspase 3 activity
[5]
  Ero1 expression: no changes
[6]
  localization of PC2: statistically significant move of PC2 from the ER to Golgi
